According to ChEMBL document CHEMBL4052645, “Discovery of potent and efficacious pyrrolopyridazines as dual JAK1/3 inhibitors” (Bioorg Med Chem Lett, 2017):

Assays:
[1] = target: Calcium/calmodulin-dependent protein kinase type 1D (Homo sapiens) (UniProt Q8IU85); experiment: Inhibition of wild-type human partial length CAMK1D (M1 to K299 residues) expressed in bacterial expression system assessed as residual activity at 50 nM by Kinomescan method relative to control
[2] = target: Calcium/calmodulin-dependent protein kinase type 1G (Homo sapiens) (UniProt Q96NX5); experiment: Inhibition of wild-type human partial length CAMK1G (M1 to A342 residues) expressed in bacterial expression system assessed as residual activity at 50 nM by Kinomescan method relative to control
[3] = target: STE20/SPS1-related proline-alanine-rich protein kinase (Homo sapiens) (UniProt Q9UEW8); experiment: Inhibition of wild-type human partial length STLK3 (P43 to I357 residues) expressed in mammalian expression system assessed as residual activity at 50 nM by Kinomescan method relative to control
[4] = target: Tyrosine-protein kinase Fes/Fps (Homo sapiens) (UniProt P07332); experiment: Inhibition of wild-type human partial length FES (I527 to R822 residues) expressed in bacterial expression system assessed as residual activity at 50 nM by Kinomescan method relative to control
[5] = target: Non-receptor tyrosine-protein kinase TNK1 (Homo sapiens) (UniProt Q13470); experiment: Inhibition of wild-type human full length TNK1 (M1 to P661 residues) expressed in bacterial expression system assessed as residual activity at 50 nM by Kinomescan method relative to control
[6] = target: Serine/threonine-protein kinase Nek2 (Homo sapiens) (UniProt P51955); experiment: Inhibition of wild-type human partial length NEK2 (M1 to K309 residues) expressed in bacterial expression system assessed as residual activity at 50 nM by Kinomescan method relative to control
[7] = target: SRSF protein kinase 2 (Homo sapiens) (UniProt P78362); experiment: Inhibition of wild-type human full length SRPK2 (M1 to S686 residues) expressed in bacterial expression system assessed as residual activity at 50 nM by Kinomescan method relative to control
[8] = target: Insulin-like growth factor 1 receptor (Homo sapiens) (UniProt P08069); experiment: Inhibition of wild-type human partial length IGF1R (L972 to D1294 residues) expressed in bacterial expression system assessed as residual activity at 50 nM by Kinomescan method relative to control
[9] = target: Mitogen-activated protein kinase kinase kinase 11 (Homo sapiens) (UniProt Q16584); experiment: Inhibition of wild-type human partial length MLK3 (I77 to W399 residues) expressed in bacterial expression system assessed as residual activity at 50 nM by Kinomescan method relative to control
[10] = target: cAMP-dependent protein kinase catalytic subunit PRKX (Homo sapiens) (UniProt P51817); experiment: Inhibition of wild-type human partial length PRKX (M1 to F358 residues) expressed in bacterial expression system assessed as residual activity at 50 nM by Kinomescan method relative to control
[11] = system: Phosphatidylinositol 4,5-bisphosphate 3-kinase catalytic subunit alpha isoform (Homo sapiens), P42336 [E542K]; experiment: Inhibition of human partial length PI3KCA E542K mutant (R108 to N1068 residues) expressed in mammalian expression system assessed as residual activity at 50 nM by Kinomescan method relative to control
[12] = target: Cyclin-dependent kinase 14 (Homo sapiens) (UniProt O94921); experiment: Inhibition of wild-type human full length PFTAIRE1 (M1 to H451 residues) expressed in bacterial expression system assessed as residual activity at 50 nM by Kinomescan method relative to control
[13] = target: Cyclin-dependent kinase 11B (Homo sapiens) (UniProt P21127); experiment: Inhibition of wild-type human partial length CDK11 (M1 to N360 residues) expressed in bacterial expression system assessed as residual activity at 50 nM by Kinomescan method relative to control
[14] = target: Macrophage-stimulating protein receptor (Homo sapiens) (UniProt Q04912); experiment: Inhibition of wild-type human partial length RON (I1057 to L1363 residues) expressed in bacterial expression system assessed as residual activity at 50 nM by Kinomescan method relative to control
[15] = target: Serine/threonine-protein kinase RIO3 (Homo sapiens) (UniProt O14730); experiment: Inhibition of full length human RIOK3 (M1 to E519 residues) expressed in bacterial expression system assessed as residual activity at 50 nM by KINOMEscan assay relative to control
[16] = target: Inhibitor of nuclear factor kappa-B kinase subunit epsilon (Homo sapiens) (UniProt Q14164); experiment: Inhibition of wild-type human full length IKK-epsilon (M1 to V716 residues) expressed in mammalian expression system assessed as residual activity at 50 nM by Kinomescan method relative to control
[17] = target: Ephrin type-A receptor 6 (Homo sapiens) (UniProt Q9UF33); experiment: Inhibition of wild-type human partial length EPHA6 (Y700 to E1046 residues) expressed in bacterial expression system assessed as residual activity at 50 nM by Kinomescan method relative to control
[18] = target: Dual specificity protein kinase CLK4 (Homo sapiens) (UniProt Q9HAZ1); experiment: Inhibition of wild-type human partial length CLK4 (R135 to K481 residues) expressed in bacterial expression system assessed as residual activity at 50 nM by Kinomescan method relative to control
[19] = target: Serine/threonine-protein kinase MRCK alpha (Homo sapiens) (UniProt Q5VT25); experiment: Inhibition of wild-type human partial length MRCKA (L57 to V418 residues) expressed in bacterial expression system assessed as residual activity at 50 nM by Kinomescan method relative to control
[20] = target: Myotonin-protein kinase (Homo sapiens) (UniProt Q09013); experiment: Inhibition of human DMPK1 (V47 to N415 residues) expressed in bacterial expression system assessed as residual activity at 50 nM by KINOMEscan assay relative to control
[21] = target: MAP kinase-activated protein kinase 2 (Homo sapiens) (UniProt P49137); experiment: Inhibition of wild-type human partial length MAPKAPK2 (V48 to D345 residues) expressed in bacterial expression system assessed as residual activity at 50 nM by Kinomescan method relative to control
[22] = target: Ankyrin repeat and protein kinase domain-containing protein 1 (Homo sapiens) (UniProt Q8NFD2); experiment: Inhibition of wild-type human partial length SGK288 (M1 to A305 residues) expressed in mammalian expression system assessed as residual activity at 50 nM by Kinomescan method relative to control
[23] = target: Calcium/calmodulin-dependent protein kinase type II subunit alpha (Homo sapiens) (UniProt Q9UQM7); experiment: Inhibition of wild-type human partial length CAMK2A (M1 to K328 residues) expressed in bacterial expression system assessed as residual activity at 50 nM by Kinomescan method relative to control
[24] = target: Focal adhesion kinase 1 (Homo sapiens) (UniProt Q05397); experiment: Inhibition of wild-type human partial length FAK (D402 to R696 residues) expressed in bacterial expression system assessed as residual activity at 50 nM by Kinomescan method relative to control
[25] = target: Serine/threonine-protein kinase TBK1 (Homo sapiens) (UniProt Q9UHD2); experiment: Inhibition of wild-type human full length TBK1 (M1 to L729 residues) expressed in mammalian expression system assessed as residual activity at 50 nM by Kinomescan method relative to control

Non-receptor tyrosine-protein kinase TNK1 (Homo sapiens), sequence (Q13470 whole entry, the tested form may be a part): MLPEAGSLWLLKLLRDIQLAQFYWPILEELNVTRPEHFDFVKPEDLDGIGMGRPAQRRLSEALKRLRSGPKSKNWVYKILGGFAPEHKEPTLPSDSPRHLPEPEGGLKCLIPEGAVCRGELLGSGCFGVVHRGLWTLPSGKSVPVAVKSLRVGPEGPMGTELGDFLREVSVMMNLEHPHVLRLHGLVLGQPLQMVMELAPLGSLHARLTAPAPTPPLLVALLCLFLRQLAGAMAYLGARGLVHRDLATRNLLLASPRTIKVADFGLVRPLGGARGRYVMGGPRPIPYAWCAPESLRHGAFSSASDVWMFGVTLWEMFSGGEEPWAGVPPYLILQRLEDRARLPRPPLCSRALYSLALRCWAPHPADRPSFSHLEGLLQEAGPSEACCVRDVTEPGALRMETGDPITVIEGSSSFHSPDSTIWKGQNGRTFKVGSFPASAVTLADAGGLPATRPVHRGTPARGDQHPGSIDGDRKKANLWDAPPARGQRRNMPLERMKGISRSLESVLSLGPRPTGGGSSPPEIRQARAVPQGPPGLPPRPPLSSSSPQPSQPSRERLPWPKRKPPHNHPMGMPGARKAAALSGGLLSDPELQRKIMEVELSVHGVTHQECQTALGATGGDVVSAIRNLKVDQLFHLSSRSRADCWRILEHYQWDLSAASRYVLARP
Ankyrin repeat and protein kinase domain-containing protein 1 (Homo sapiens), sequence (Q8NFD2 whole entry, the tested form may be a part): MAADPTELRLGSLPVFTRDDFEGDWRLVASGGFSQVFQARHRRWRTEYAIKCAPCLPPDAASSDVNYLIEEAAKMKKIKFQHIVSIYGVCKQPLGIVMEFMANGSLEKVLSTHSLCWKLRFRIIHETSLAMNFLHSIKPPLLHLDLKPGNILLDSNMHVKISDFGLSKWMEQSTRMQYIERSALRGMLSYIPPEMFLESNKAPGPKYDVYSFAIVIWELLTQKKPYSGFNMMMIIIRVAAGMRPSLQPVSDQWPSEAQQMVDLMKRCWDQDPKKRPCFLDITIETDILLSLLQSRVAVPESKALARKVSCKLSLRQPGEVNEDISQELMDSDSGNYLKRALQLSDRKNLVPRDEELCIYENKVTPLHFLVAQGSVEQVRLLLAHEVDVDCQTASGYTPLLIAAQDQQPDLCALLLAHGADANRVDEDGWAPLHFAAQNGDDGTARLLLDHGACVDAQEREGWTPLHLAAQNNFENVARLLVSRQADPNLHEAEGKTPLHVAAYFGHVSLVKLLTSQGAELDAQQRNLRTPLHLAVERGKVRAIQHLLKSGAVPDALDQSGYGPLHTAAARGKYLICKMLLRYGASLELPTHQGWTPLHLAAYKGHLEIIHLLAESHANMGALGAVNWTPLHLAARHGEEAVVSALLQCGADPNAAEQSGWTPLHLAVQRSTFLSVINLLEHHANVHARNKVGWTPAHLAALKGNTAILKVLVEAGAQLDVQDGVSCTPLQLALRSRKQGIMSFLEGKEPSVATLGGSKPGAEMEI
Inhibitor of nuclear factor kappa-B kinase subunit epsilon (Homo sapiens), sequence (Q14164 whole entry, the tested form may be a part): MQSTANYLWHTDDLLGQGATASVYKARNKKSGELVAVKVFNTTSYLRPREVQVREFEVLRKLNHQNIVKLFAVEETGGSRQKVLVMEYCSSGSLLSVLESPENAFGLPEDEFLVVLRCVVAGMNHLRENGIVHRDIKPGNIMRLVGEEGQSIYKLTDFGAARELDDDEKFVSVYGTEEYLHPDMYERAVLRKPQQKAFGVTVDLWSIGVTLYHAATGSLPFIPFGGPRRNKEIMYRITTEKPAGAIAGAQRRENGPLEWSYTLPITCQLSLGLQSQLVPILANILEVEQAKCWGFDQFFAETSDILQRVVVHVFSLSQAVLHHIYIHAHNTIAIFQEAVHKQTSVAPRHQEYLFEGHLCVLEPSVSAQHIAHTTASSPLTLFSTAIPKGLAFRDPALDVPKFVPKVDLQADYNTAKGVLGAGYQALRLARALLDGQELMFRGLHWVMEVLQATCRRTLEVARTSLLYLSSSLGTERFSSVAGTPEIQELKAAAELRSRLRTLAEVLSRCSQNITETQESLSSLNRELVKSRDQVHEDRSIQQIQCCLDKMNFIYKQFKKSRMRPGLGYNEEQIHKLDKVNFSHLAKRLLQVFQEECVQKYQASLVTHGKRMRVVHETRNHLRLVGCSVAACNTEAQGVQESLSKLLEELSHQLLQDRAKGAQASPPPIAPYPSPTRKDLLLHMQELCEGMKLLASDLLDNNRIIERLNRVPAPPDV
Serine/threonine-protein kinase RIO3 (Homo sapiens), sequence (O14730 whole entry, the tested form may be a part): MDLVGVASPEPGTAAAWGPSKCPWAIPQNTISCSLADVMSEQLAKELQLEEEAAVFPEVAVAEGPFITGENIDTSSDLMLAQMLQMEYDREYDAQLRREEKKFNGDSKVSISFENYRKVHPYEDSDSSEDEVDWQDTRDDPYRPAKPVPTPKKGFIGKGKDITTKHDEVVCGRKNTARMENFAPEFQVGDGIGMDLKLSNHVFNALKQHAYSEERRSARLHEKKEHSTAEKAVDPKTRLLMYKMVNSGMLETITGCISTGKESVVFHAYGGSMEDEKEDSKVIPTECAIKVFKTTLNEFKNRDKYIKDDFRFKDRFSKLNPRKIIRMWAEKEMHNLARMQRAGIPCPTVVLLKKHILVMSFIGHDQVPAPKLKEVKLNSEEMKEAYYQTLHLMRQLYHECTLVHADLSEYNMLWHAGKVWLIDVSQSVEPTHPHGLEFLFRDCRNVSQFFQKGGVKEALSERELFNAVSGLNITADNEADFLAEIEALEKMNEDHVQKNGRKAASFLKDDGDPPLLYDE
Ephrin type-A receptor 6 (Homo sapiens), sequence (Q9UF33 whole entry, the tested form may be a part): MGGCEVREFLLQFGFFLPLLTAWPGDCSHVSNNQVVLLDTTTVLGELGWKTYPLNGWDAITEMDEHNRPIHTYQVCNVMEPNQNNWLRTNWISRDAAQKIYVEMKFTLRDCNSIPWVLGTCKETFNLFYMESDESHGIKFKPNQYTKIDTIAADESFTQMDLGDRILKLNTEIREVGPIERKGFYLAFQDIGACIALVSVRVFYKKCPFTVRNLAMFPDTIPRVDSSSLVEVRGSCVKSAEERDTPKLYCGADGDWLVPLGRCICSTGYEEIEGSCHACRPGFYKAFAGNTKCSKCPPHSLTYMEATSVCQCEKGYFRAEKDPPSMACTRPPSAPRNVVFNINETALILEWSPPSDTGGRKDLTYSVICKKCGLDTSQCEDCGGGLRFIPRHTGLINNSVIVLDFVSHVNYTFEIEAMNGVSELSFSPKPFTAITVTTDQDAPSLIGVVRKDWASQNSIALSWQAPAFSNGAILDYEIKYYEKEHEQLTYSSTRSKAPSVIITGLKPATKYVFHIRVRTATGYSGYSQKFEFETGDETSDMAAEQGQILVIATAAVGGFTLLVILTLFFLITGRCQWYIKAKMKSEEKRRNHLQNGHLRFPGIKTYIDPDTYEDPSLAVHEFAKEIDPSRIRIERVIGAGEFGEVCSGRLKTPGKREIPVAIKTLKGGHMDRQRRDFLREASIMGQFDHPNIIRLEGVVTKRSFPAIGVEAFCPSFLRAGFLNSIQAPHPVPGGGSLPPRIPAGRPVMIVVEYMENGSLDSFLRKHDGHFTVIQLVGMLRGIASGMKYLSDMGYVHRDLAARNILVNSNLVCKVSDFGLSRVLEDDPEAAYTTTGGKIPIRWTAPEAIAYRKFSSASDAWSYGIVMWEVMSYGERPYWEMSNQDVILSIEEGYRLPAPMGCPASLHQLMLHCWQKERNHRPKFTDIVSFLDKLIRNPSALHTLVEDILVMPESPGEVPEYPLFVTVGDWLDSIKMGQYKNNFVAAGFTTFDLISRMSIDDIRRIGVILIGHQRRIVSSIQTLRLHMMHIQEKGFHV
Cyclin-dependent kinase 11B (Homo sapiens), sequence (P21127 whole entry, the tested form may be a part): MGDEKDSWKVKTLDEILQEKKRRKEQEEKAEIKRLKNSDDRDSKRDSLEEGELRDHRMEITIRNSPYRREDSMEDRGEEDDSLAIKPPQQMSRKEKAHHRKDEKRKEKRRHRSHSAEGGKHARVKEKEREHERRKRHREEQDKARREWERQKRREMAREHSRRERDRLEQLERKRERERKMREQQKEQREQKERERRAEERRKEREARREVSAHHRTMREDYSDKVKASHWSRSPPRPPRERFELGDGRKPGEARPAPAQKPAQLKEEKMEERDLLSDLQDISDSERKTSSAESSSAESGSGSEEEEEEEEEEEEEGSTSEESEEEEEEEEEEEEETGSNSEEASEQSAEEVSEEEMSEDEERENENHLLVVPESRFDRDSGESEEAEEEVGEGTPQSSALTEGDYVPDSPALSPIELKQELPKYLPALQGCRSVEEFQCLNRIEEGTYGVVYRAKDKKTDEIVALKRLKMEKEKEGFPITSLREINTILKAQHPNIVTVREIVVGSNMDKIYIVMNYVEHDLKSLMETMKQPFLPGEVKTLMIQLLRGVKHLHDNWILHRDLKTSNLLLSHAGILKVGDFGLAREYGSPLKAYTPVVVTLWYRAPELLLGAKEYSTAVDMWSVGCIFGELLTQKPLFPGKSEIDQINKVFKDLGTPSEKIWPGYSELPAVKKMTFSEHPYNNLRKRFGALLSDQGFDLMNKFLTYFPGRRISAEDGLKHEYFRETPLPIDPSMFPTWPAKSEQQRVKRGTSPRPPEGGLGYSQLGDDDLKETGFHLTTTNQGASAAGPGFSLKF
MAP kinase-activated protein kinase 2 (Homo sapiens), sequence (P49137 whole entry, looked up, the tested form may be a part): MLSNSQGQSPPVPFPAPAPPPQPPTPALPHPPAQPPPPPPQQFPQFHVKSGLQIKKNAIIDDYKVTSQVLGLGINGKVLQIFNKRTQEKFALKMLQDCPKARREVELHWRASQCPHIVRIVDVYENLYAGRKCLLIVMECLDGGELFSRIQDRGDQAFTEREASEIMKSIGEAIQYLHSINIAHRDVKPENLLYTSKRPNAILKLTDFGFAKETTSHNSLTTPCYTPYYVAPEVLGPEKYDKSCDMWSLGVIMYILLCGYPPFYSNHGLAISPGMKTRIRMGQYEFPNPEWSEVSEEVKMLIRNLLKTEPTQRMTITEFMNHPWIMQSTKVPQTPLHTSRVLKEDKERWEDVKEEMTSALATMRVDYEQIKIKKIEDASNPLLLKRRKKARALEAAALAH

Compound | Activity [1] [%] | Activity [2] [%] | Activity [3] [%] | Activity [4] [%] | Activity [5] [%] | Activity [6] [%] | Activity [7] [%] | Activity [8] [%] | Activity [9] [%] | Activity [10] [%] | Activity [11] [%] | Activity [12] [%] | Activity [13] [%] | Activity [14] [%] | Activity [15] [%] | Activity [16] [%] | Activity [17] [%] | Activity [18] [%] | Activity [19] [%] | Activity [20] [%] | also measured
COc1ccc(-c2cc3c(N[C@@H]4CC[C@](C)(N)C4(C)C)c(C(N)=O)cnn3c2)cn1 | 100 | 82 | 84 | 98 | 92 | 93 | 81 | 100 | 100 | 100 | 100 | 100 | 100 | 100 | 66 | 91 | 95 | 100 | 97 | 38 | Activity [21]: 100%; Activity [22]: 100%; Activity [23]: 100%; Activity [24]: 88%; Activity [25]: 97%
CC1(C)[C@H](Nc2c(C(N)=O)cnn3cc(-c4ccccc4)cc23)CC[C@]1(C)N | 100 | 100 | 100 | 100 | 34 | 72 | 95 | 100 | 64 | 59 | 100 | 83 | 99 | 100 | 3.7 | 100 | 100 | 100 | 74 | 2.8 | Activity [21]: 100%; Activity [22]: 100%; Activity [23]: 88%; Activity [24]: 88%; Activity [25]: 90%
